Data taken from patent US12319655B2, “RAF kinase inhibitors and methods of use thereof” (Deciphera Pharmaceuticals, LLC, priority 2021, dated 2025).

Experiments:
[1] = target: A-Raf kinase (SEQ. ID No: 1) (Homo sapiens (Human), UniProt P10398, Y301D/Y302D); test: Biochemical Assay for A-Raf (1); conditions: Table J, assay version (1); read-out: ARAF (1) IC50
In short: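 IC50 values were derived by four-parameter sigmoidal fitting of percent inhibition, calculated from reaction rates over the 4–5 h window. Absorbance at 340 nm was tracked for 6 h at 30 °C via coupled PK/LDH NADH depletion. Conditions: 1 mM ATP, 30.1 nM MEK substrate, 5.55 nM A-Raf (Y301D/Y302D), Tris pH 7.5, 1% DMSO.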

[2] = target: C-Raf kinase (SEQ. ID NO: 3) (Homo sapiens (Human), UniProt P04049, Y340D/Y341D); test: Biochemical Assay for C-Raf (1); conditions: Table J, assay version (1); read-out: CRAF (1) IC50
In short: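 IC50 values come from a four-parameter fit of percent inhibition, using the reaction rate over 4–5 h of a 6 h continuous 340 nm read at 30 °C. The enzyme mix was C-Raf 0.43 nM, MEK substrate 30.1 nM and ATP 1 mM, in a PK/LDH NADH-coupled format in Tris pH 7.5 with 1% DMSO.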

A375 cells = test: A375 Cell Proliferation Assay (1); format: cell-based; conditions: Homo sapiens, A-375
In short: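 Resazurin fluorescence (excitation 540 nm, emission 600 nm, after a further 5-6 h) gave IC50s from triplicate compound dilution series.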

Miapaca-2 cells = test: MiaPaca-2 Cell Proliferation Assay (1); format: cell-based; conditions: Homo sapiens, MIA PaCa-2, single agent, read-out: MiaPaca2 (1) IC50
In short: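 Resazurin was added after compound exposure and incubated 5-6 h, then fluorescence read at 540 nm excitation and 600 nm emission to give IC50.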

Chain of A-Raf kinase (SEQ. ID No: 1) (P10398 other isoform, or with tags, fused parts or gaps Y301D (already in the parent)/Y302D (already in the parent)): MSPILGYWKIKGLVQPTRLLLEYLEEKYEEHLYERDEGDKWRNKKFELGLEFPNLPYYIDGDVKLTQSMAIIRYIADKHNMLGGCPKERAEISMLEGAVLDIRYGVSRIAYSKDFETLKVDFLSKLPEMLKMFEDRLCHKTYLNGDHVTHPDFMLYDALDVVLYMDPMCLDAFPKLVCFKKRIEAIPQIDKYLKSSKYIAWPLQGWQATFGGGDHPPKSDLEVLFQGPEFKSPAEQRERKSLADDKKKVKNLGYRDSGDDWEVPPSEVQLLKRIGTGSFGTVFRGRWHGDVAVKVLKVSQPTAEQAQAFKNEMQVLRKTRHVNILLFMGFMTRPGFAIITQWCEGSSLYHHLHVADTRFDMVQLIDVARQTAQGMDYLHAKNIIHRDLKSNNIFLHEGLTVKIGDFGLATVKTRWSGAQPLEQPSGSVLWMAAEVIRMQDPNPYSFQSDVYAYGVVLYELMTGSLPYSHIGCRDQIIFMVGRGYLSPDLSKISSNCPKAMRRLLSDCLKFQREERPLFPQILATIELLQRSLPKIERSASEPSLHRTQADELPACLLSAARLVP
Chain of C-Raf kinase (SEQ. ID NO: 3) (P04049 307-648 Y340D/Y341D): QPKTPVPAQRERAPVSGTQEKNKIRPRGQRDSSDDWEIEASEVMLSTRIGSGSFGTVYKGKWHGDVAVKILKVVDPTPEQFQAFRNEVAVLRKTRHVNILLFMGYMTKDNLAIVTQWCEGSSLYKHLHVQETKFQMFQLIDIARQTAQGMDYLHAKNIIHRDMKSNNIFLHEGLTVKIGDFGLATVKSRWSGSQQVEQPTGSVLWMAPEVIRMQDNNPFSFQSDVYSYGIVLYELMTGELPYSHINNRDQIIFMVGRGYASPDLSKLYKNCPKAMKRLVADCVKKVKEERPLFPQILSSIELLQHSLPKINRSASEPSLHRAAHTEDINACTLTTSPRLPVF

Row | SMILES | IC50 [1] | IC50 [2] | IC50 (A375 cells) | IC50 (Miapaca-2 cells)
1 | Cc1cc(-c2cc(NC(=O)C3CC3)ncn2)cc(-c2cc(NC(=O)c3ccnc(C(C)(C)C#N)c3)ccc2C)c1 [Example 212] | 1 to 10 µM | ≤ 0.1 µM | ≤ 0.1 µM | 1 to 10 µM
2 | CNC(=O)c1cc(-c2cc(-c3cc(NC(=O)c4ccnc(C(C)(C)F)c4)ccc3C)ccn2)ccn1 [Example 214] | 1 to 10 µM | ≤ 0.1 µM | ≤ 0.1 µM | 1 to 10 µM
3 | CNC(=O)c1cc(-c2cc(-c3cc(NC(=O)c4cnnc(C5CC5)c4)ccc3C)ccn2)ccn1 [Example 215] | 1 to 10 µM | ≤ 0.1 µM | 0.5 to 1 µM | 1 to 10 µM
4 | Cc1ccc(NC(=O)c2ccnc(C(C)(C)C#N)c2)cc1-c1cc(-c2cc(NC(=O)C3CC3)ncn2)cc(C2CC2)c1 [Example 216] | 1 to 10 µM | 0.1 to 0.5 µM | ≤ 0.1 µM | 1 to 10 µM
5 | Cc1ncc(NC(=O)c2ccnc(C(C)(C)C#N)c2)cc1-c1cc(-c2cc(NC(=O)C3CC3)ncn2)cc(C2CC2)c1 [Example 218] | 1 to 10 µM | ≤ 0.1 µM | ≤ 0.1 µM | 1 to 10 µM
6 | Cc1ncc(NC(=O)c2ccnc(C(C)(C)C#N)c2)cc1-c1ccnc(-c2ccnc(NC(=O)C(C)(C)C#N)c2)c1 [Example 219] | 1 to 10 µM | 0.1 to 0.5 µM | 0.1 to 0.5 µM | 1 to 10 µM
7 | Cc1ccc(NC(=O)c2ccnc(C3(C#N)CC3)c2)cc1-c1cccc(-c2cc(NC(=O)C3CC3)ncn2)n1 [Example 220] | 1 to 10 µM | 0.1 to 0.5 µM | 1 to 10 µM | 1 to 10 µM
8 | COCCNc1cc(-c2nccc(-c3cc(NC(=O)c4ccnc(C(C)(C)C#N)c4)ccc3C)n2)ccn1 [Example 221] | 1 to 10 µM | ≤ 0.1 µM | 1 to 10 µM | 1 to 10 µM
9 | Cc1ncc(NC(=O)c2ccnc(C(C)(C)C#N)c2)cc1-c1cccc(-c2ccnc(NC(=O)C3CC3)c2)c1 [Example 222] | 0.5 to 1 µM | ≤ 0.1 µM | ≤ 0.1 µM | 1 to 10 µM
10 | Cc1ccc(NC(=O)c2ccnc(C(C)(C)C#N)c2)cc1-c1cncc(-c2cc(NC(=O)C3CC3)ncn2)c1 [Example 224] | 0.5 to 1 µM | ≤ 0.1 µM | ≤ 0.1 µM | 0.1 to 0.5 µM
11 | COC(=O)Nc1cc(-c2cccc(-c3cc(NC(=O)c4ccnc(C(C)(C)C#N)c4)cnc3C)c2)ncn1 [Example 225] | 1 to 10 µM | ≤ 0.1 µM | ≤ 0.1 µM | 1 to 10 µM
12 | Cc1ncc(NC(=O)c2ccnc(C(C)(C)C#N)c2)cc1-c1cccc(-c2cc(NC(=O)C3CC3)ncn2)n1 [Example 226] | 1 to 10 µM | 0.5 to 1 µM | 1 to 10 µM | 1 to 10 µM
13 | Cc1ccc(NC(=O)c2ccnc(C3CC3)c2)cc1-c1ccnc(-c2ccnc(NC(=O)C3CC3)c2)n1 [Example 229] | 0.1 to 0.5 µM | ≤ 0.1 µM | 0.1 to 0.5 µM | 1 to 10 µM
14 | Cc1ccc(NC(=O)c2ccnc(C(C)(C)C#N)c2)cc1-c1cnnc(-c2ccnc(NC(=O)C3CC3)c2)c1 [Example 230] | 1 to 10 µM | ≤ 0.1 µM | ≤ 0.1 µM | 0.5 to 1 µM
15 | CNC(=O)c1cc(-c2cc(-c3cc(NC(=O)c4cccc(C(C)(C)C#N)c4)ccc3C)cc(OCCO)n2)ccn1 [Example 231] | 1 to 10 µM | ≤ 0.1 µM | ≤ 0.1 µM | 1 to 10 µM
16 | Cc1ccc(NC(=O)c2ccnc(C(C)(C)C#N)c2)cc1-c1cccc(-c2cc(NC(=O)C3CC3)ncn2)n1 [Example 233] | 1 to 10 µM | ≤ 0.1 µM | 0.5 to 1 µM | 1 to 10 µM
17 | CNC(=O)c1cc(-c2cncc(-c3cc(NC(=O)c4ccnc(C(C)(C)C#N)c4)ccc3C)c2)ncn1 [Example 235] | 1 to 10 µM | ≤ 0.1 µM | ≤ 0.1 µM | 1 to 10 µM
18 | Cc1ccc(NC(=O)c2ccnc(C(C)(C)C#N)c2)cc1-c1ccnc(-c2ccnc(NC(=O)C3(C#N)CC3)c2)n1 [Example 241] | 1 to 10 µM | ≤ 0.1 µM | ≤ 0.1 µM | 0.5 to 1 µM
